Measurements from US11471448B2 (priority 2020, dated 2022).
Counter-ions that a name gives are not always drawn.

Key:
[1] = system: SARS-CoV-2 clinical isolate (2019-nCoV/USA-WA1/2020); experiment: Anti-viral activity against SARS-CoV-2 in HBEC air-liquid-interface cultures (apical viral titer by TCID50); assay type: cell-based
[2] = system: patients with COVID-19 pneumonia; experiment: Pilot study / compassionate use of opaganib in hospitalized COVID-19 pneumonia patients; assay type: in vivo, human
Excerpt: Return to room air or a specific SpO2 oxygen saturation on room air. Assessment of on-treatment viral load changes, and changes in D-dimer, cardiac troponin, LDH and ferritin levels. Study Design:
Patients entered a screening period of up to 1 week. Eligible patients entered the treatment period for up to 2 weeks. All participants were followed for 2 weeks after their last dose of study drug, at the end of the 2 week treatment period, or once they had 2 consecutive daily negative viral swabs for the COVID-19 virus or at after premature drug discontinuation prior to Day 14. The maximum duration of study participation was 35 days […].
• 1. Adult male or female≥18 to ≤75 years of age, inclusive • 2. Proven COVID-19 infection and pneumonia not requiring mechanical ventilation or mechanically ventilated for no more than 24 hours at time of informed consent • 3. The patient, guardian or legally acceptable representative has signed a written IRB-approved informed consent. Key Exclusion Criteria: • 1. New York Heart Association Class III or IV, cardiac disease, myocardial infarction within the past 6 months, unstable arrhythmia, or evidence of ischemia on ECG • 2. Any co-morbidity that may add risk to the treatment in the judgement of the investigator. • 3. Pregnant (positive serum test) or nursing women • 4. Unwillingness or inability to comply with procedures required in this protocol. • 5. AST (SGOT) or ALT (SGPT)>2.5× upper limit of normal (ULN) • 6. Bilirubin>1.5×ULN (except where bilirubin increase is due to Gilbert's Syndrome) • 7. Serum creatinine>2.0×ULN • 8. Absolute neutrophil count<1000 cells/mm^3 • 9. Platelet count<75,000/mm^3 • 10. Hemoglobin<8.0 g/dL • 11. Currently taking warfarin, apixaban, argatroban or rivaroxaban • 12. Current drug or alcohol abuse Study Assessments: The following will be monitored daily (see Table 3): • Review of concomitant medications • Adverse Events • Physical exam • Vital signs (temperature, blood pressure, pulse rate, respiratory rate and oxygen saturation by pulse oximeter) • Clinical symptoms (cough, dyspnea, nausea, vomiting, diarrhea) • Nasopharyngeal viral swab • Serum chemistry • CBC with differential • Chest X-ray • Urinalysis
Each dose is administered with food or 15-30 minutes after tube-feeding, where appropriate.
These patients had moderate to severe COVID-19-related pneumonia with hypoxia on supplemental oxygen.
Five patients were included in the analysis, and for comparison purposes, we used a control group with same-sex, same-severity patients (baseline characteristics). Univariate comparisons between the groups were performed with chi-square test for categorical variables and t-test or MannWhitney U-test for continuous variables, as appropriate. Time variables were compared with Cox proportional hazard regression, adjusted for age and background illnesses. CRP and lymphocyte changes were compared utilizing a repeated measures general linear model with a Bonferroni correction for multiple comparison.

[3] = system: human bronchial epithelial cells (HBEC)
[4] = system: patients with severe COVID-19 pneumonia; experiment: Randomized, double-blind, placebo-controlled Phase 2/3 study of opaganib in COVID-19 pneumonia (baseline FiO2 up to 60% subgroup)
[5] = of 6 moderate-to-severe patients

O=C(NCc1ccncc1)C12CC3CC(C1)CC(c1ccc(Cl)cc1)(C3)C2 [opaganib, 3-(4-chlorophenyl)-adamantane-1-carboxylic acid (pyridin-4-ylmethyl) amide, hydrochloride salt]
50% inhibition reached in the concentration range tested ([1]; 0.05 to 11.25 μg/ml): neither 50% inhibition nor 50% cytotoxicity were reached
concentration from which complete inhibition of infectious virus production is seen ([1]; SARS-CoV-2-infected HBEC, 3 days incubation): ≥ 1 µg/mL
HR, time to weaning from HFNC, cases vs. controls ([2]; 95% CI: 0.07-1.7, p=0.2, Cox regression adjusted for age and background illnesses): 0.3
HR, time to ambient air, cases vs. controls ([2]; 95% CI: 0.15-1.5): 0.4
Lymphocytes, most recent ([2]; Patient 1 (14 d), baseline 1.6, 17 Apr. 2020): 2.8 (17 Apr. 2020) 10^3/mm^3
CRP, most recent ([2]; Patient 1 (14 d), baseline 15.1, 17 Apr. 2020): 1 (17 Apr. 2020) mg/L
Clinical Assessment ([2]; Patient 1 (14 d on opaganib), started severe on maximal OptiFlow 3 Apr. 2020): 3 Apr. 2020; RA by 16/4. As of 22/4, one negative
Lymphocytes, most recent ([2]; Patient 2 (14 d), baseline 1.1, 17 Apr. 2020): 2.1 (17 Apr. 2020) 10^3/mm^3
CRP, most recent ([2]; Patient 2 (14 d), baseline 14.2, 17 Apr. 2020): 4.8 (17 Apr. 2020) mg/L
Clinical Assessment ([2]; Patient 2 (14 d), started severe+, planning for intubation 7 Apr. 2020): 7 Apr. 2020; RA by 20 Apr. 4 2020, D/C on
Lymphocytes, most recent ([2]; Patient 3 (7 d), baseline 0.9, 17 Apr. 2020): 1.2 (17 Apr. 2020) 10^3/mm^3
CRP, most recent ([2]; Patient 3 (7 d), baseline 10.7, 17 Apr. 2020): 1.7 (17 Apr. 2020) mg/L
Clinical Assessment ([2]; Patient 3 (7 d), moderate-severe, on OptiFlow 13 Apr. 2020, RA by 17 Apr. 2020): 17 Apr. 2020, D/C on 19 Apr. 2020
Lymphocytes, most recent ([2]; Patient 4 (11 d), baseline 1.2, 22 Apr. 2020): 1 (22 Apr. 2020) 10^3/mm^3
CRP, most recent ([2]; Patient 4 (11 d), baseline 24.8, 22 Apr. 2020): 17.4 (22 Apr. 2020) mg/L
Clinical Assessment ([2]; Patient 4 (11 d), started severe+ 70% OptiFlow on 13 Apr. 2020): RA on 22 Apr. 2020
Clinical Assessment ([2]; Patient 5 (2 d), started moderate on 13 Apr. 2020, nasal cannula, D/C on 14 Apr. 2020 on RA): Dramatic improvement after one day on
Lymphocytes, most recent ([2]; Patient 6 (5 d), baseline 1.35, 24 Apr. 2020): 1.96 (24 Apr. 2020) 10^3/mm^3
CRP, most recent ([2]; Patient 6 (5 d), baseline 12.2, 24 Apr. 2020): 6.8 (24 Apr. 2020) mg/L
adverse event leading to discontinuation ([2]; Patient 7 (1 d), also on HCQ and azithromycin, may or may not be related to opaganib): opaganib started. Diarrhea the next day, all 3 meds were stopped, followed by worsening SOB, on 75% OptiFlow.
C-Reactive Protein (CRP) ([2]; all six patients): reduction
clinical improvement, including reduced supplemental oxygenation and higher lymphocyte counts ([2]; all six patients): measurable clinical improvement
median time to weaning from high-flow nasal cannula (HFNC) ([2]; cases, controls 15 days): 10 days
cases requiring mechanical ventilation ([2]; compared with 33% of controls): none
lymphocyte count change vs. matched controls ([2]; five patients vs. same-sex, same-severity control group): significantly faster increase
patients back to breathing room air [2, 5]: 5 patients
patients discharged from hospital [2, 5]: 3 patients
moderate to-severe patients improved significantly ([2]; of 6 patients treated (patient #7 excepted), opaganib plus standard-of-care): 6 patients
cell viability [3]: remained viable
50% cytotoxicity reached in the concentration range tested ([3]; human): neither 50% inhibition nor 50% cytotoxicity were reached
overall adverse events vs. placebo group ([4]; 500 mg Q12 hours, 14 days): balanced
patients reaching room air by Day 14 (no supplemental oxygen for at least 24 hours) ([4]; baseline FiO2 up to 60%, 90/117 patients, placebo 85/134 (63.5%)): 77%
efficacy benefit in mortality, Sensitivity Analysis ([4]; baseline FiO2 up to 60%, nominal p-value=0.033): 64%
mortality (deaths/patients), Sensitivity Analysis ([4]; baseline FiO2 up to 60%, placebo 16/134): 5/117
efficacy benefit in reaching room air by Day 14 ([4]; baseline FiO2 up to 60%, vs. placebo, nominal p-value=0.033): 21%
median time to discharge ([4]; baseline FiO2≤60% (251 patients), placebo 14 days): 10 days
Time to a score of <=3 on the WHO Ordinal Scale: Kaplan-Meier Median ([4]; baseline FiO2≤60%, 95% CI (7.00-9.00), placebo 10.00): 8.00 days
Patients With an Improvement of 2 or More on the WHO Ordinal Scale Compared to Baseline by Day 14 ([4]; baseline FiO2≤60%, N = 117): 93 (79.49) n (%)
Time to Discharge by day 42: Number of Events ([4]; baseline FiO2≤60%, N = 117): 81 (69.2) n (%)
Time to a score of <=3 on the WHO Ordinal Scale: Number of Events ([4]; baseline FiO2≤60%, N = 117): 93 (79.5) n (%)
Time to Discharge by day 42: Difference and 95% CI (opaganib vs. placebo) ([4]; baseline FiO2≤60%, p-value 0.0022): −4.48 (−7.34, −1.62) days
Difference in Rates (Opaganib-Placebo), improvement of 2 or more on the WHO Ordinal Scale by Day 14 ([4]; baseline FiO2≤60%, p-value 0.023): 13.82%
Time to Discharge by day 42: Kaplan-Meier Mean (Restricted Mean Analysis) ([4]; baseline FiO2≤60%, placebo 17.89): 13.41 days
mortality (deaths/patients) ([4]; mITT with baseline FiO2 up to 60%, through Day 42, placebo 21/134): 7/117
reduction in mortality ([4]; mITT with baseline FiO2 up to 60%, vs. placebo, nominal p-value=0.019): 62%
